This note sets out measurements from ChEMBL document CHEMBL4325829, “Design and Synthesis of Tubulin and Histone Deacetylase Inhibitor Based on iso-Combretastatin A-4” (J Med Chem, 2018).

The test system of one assay is BXPC-3. Put plainly: Antiproliferative activity against human BxPC3 cells after 72 hrs by MTS assay. It is filed as functional. Background: Formazan colour is commonly taken as a measure of viable cells.
A further assay relates to HCT-116. Put plainly: Antiproliferative activity against human HCT116 cells after 72 hrs by MTS assay. It is filed as functional.
The test system of another assay is MCF7. Description: Antiproliferative activity against human MCF7 cells after 72 hrs by MTS assay. It is filed as functional.
The subject of assay [1] is HT-29. Put plainly: Antiproliferative activity against human HT-29 cells assessed as cell viability after 72 hrs by MTS assay relative to control. It is filed as functional.
A further assay concerns A549. Description: Antiproliferative activity against human A549 cells after 72 hrs by MTS assay. It is filed as functional.
Assay [2] has as its system HT-29. Put plainly: Antiproliferative activity against human HT-29 cells in presence of isoCA-4 after 72 hrs by MTS assay relative to control. It is filed as functional, cell-based. To be noted: HT-29, 72 h.
In the next assay the test system is PC-3. Description: Antiproliferative activity against human PC3 cells after 72 hrs by MTS assay. It is filed as functional.
The next assay has as its system U-87 MG. Put plainly: Antiproliferative activity against human U87 cells after 72 hrs by MTS assay. It is filed as functional, U-87MG ATCC.
The next assay deals with MIA PaCa-2. Put plainly: Antiproliferative activity against human MIAPaCa2 cells after 72 hrs by MTS assay. It is filed as functional.
The test system of a further assay is K-562R. Put plainly: Antiproliferative activity against human K562R cells after 72 hrs by MTS assay. It is filed as functional.
The subject of assay [3] is HT-29. Description: Antiproliferative activity against human HT-29 cells after 72 hrs by MTS assay. It is filed as functional.
A further assay deals with K562. Put plainly: Antiproliferative activity against human K562 cells after 72 hrs by MTS assay. It is filed as functional.

Structures are written as SMILES.

Broadly, the GI50 is the concentration at which growth is held to half of that of the control. A high value points to less potent growth inhibition. The IC50 is the concentration at which inhibition is half-maximal. With `CC(/C=C/C(=O)NO)=C\[C@@H](C)C(=O)c1ccc(N(C)C)cc1` [TRICHOSTATIN], the GI50 in the assay with BXPC-3 turned out to be 100 nM; in the assay with HCT-116, 35 nM; in the assay with MCF7, 45 nM; with A549, 80 nM; in the assay on PC-3, 387 nM; in the assay on U-87 MG, 1040 nM. Further, the GI50 is 200 nM in the assay with MIA PaCa-2, 88 nM with K-562R, 34.1 nM in the assay on HT-29 [3] and 262 nM in the assay on K562. Moreover, the Activity in the assay on HT-29 [1] is <20%. Besides, the IC50 in the assay on HT-29 [2] was 3.8 nM.
